The subject of experiment [1] is serum cholesterol and serum triglycerides. In words: Hypolipidaemic activity in rats (compound in diet, last 7 of 10 days). It counts as in vivo, Male Wistar rats. The following applies: Rattus norvegicus, po, 168 h, 7 days; for change in vivo at 0.1 % strength: 0.1 % w/w dose in diet; for change in vivo at 0.2 % strength: 0.2 % w/w dose in diet; for change in vivo at 0.03 % strength: 0.03 % w/w dose in diet. A digest of the protocol:
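Male Wistar rats (120–150 g, groups of eight) on powdered diet for 10 days, with test compound mixed into the diet (oral) for the last 7 days. On day 10, cardiac blood was taken and serum cholesterol and triglycerides measured by autoanalyser. Percentage reductions were calculated against simultaneous untreated-diet controls for each compound concentration.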

In experiment [2] the test system is Smooth muscle cells from explants of pig thoracic aorta. In words: Aortic smooth muscle cell proliferation inhibiting activity. The following applies: Sus scrofa, 168 h, 5 μg/ml medium; six or seven day incubation; each value mean of four dishes. It counts as cell-based. The protocol:
Aortic smooth muscle cell proliferation inhibiting activity
Smooth muscle cells were grown in culture from explants of pig thoracic aorta, using Dulbecco's Modified Eagles (DME) Medium containing 20% foetal calf serum (FCS) and antibiotics. The cells were incubated at 37° C. in an atmosphere of 95% air and 5% carbon dioxide. At confluency the cells were routinely subcultured by trypsinising and replating at approximately one third of their confluent density in DME Medium containing 10% FCS and antibiotics.
The smooth muscle cells were plated out at densities of 100,000-200,000 cells per 35×10 mm Falcon dish in 2 ml DME Medium containing 10% FCS and antibiotics. After 24 hours, when the cells had attached to the dishes, the medium was replaced with 2 ml DME Medium containing 1% FCS and antibiotics. The cultures were incubated for a further three days to allow the cells to become quiescent (i.e. no longer undergoing cell division). The medium was then replaced by 2 ml control or test medium. The test medium consisted of DME Medium (containing 10% FCS and antibiotics) and the compound to be tested at a concentration of 5 μg/ml medium. The compounds were pre-dissolved in acetone such that the final concentration of acetone in the medium was 0.2% (v/v). The control medium consisted of DME Medium (containing 10% FCS and antibiotics) and acetone at 0.2% (v/v) concentration. After three days incubation in test or control medium, the medium was replaced with fresh test or control medium and the cells incubated for a further three or four days. At the end of the six or seven day incubation period cell numbers were determined by trypsinising the cells and counting the cell suspension in a Coulter counter.
All results in Table II hereafter represent the mean value for four dishes of cells. Percentage inhibition of proliferation was calculated using the following formula: [formula] where S=Mean cell number per dish at start of experiment (upon addition of control or test medium).
T=Mean cell number per dish in test cultures at completion of experiment.
C=Mean cell number per dish in control cultures at completion of experiment.

The subject of experiment [3] is serum glucose. Put plainly: Hypoglycaemic activity in diabetic mice. It counts as in vivo, Diabetic mice (strain C 57, black, MRI derived Obese/Obese). The following applies: 200 mg/kg body weight per day orally for 3 days; 3 hours after last dose. Here is the method:
Hypoglycaemic Activity in Diabetic Mice
Diabetic mice (strain C 57, black, MRI derived Obese/Obese) of either sex each weighting between 45 and 70 g were given the test compound orally at a dose of 200 mg/kg body weight per day for 3 days. Three hours after the last dose the animals were weighed, anaesthetised with carbon dioxide and bled by cardiac puncture.
The serum glucose levels were assessed by the glucose-oxidase method of God-Perid.
Control groups (given doses of unmedicated tragacanth mucilage) were included with each test.
The percentage reduction in the concentration of serum glucose was calculated by comparison with the simultaneous controls, for each of the test compounds used.

The mark [4] stands for this setting: read-out: % change in serum cholesterol compared with control.
Where [5] appears, read: read-out: % change in serum triglycerides compared with control.

Read-outs that look alike come from different tables or passages of the source.

The inhibition is the change of the read-out against control, counted positive when it falls. Take `CCCCCCCCCCCCCCCCCCc1cc2cc(C(=O)O)ccc2[nH]1` [Compound T, 2-(n-octadecyl)indole-5-carboxylic acid]: in experiment [1] (setting [4]), the change in vivo at 0.1 % strength is -45% and the change in vivo at 0.2 % strength is -43%. Further, in experiment [1] (setting [5]), the change in vivo at 0.1 % strength is -78% and the change in vivo at 0.2 % strength was -67%. This compound yielded an inhibition at 5 µg/mL in experiment [2] of 30%.
Regarding `CCCCCCCCCCCCCCCCc1cc2ccc(C(=O)O)cc2[nH]1` [Compound TT, 2-(n-hexadecyl)indole-6-carboxylic acid], the change in vivo at 0.2 % strength in experiment [1] (setting [4]) was -8%; in experiment [1] (setting [5]), -6%. In experiment [2], the inhibition at 5 µg/mL stood at 61%.
For the compound `CCCCCCCc1cc2cc(C(=O)OC)ccc2[nH]1` [Compound ASS, methyl 2-(n-heptyl)indole-5-carboxylate], the results for the change in vivo at 0.2 % strength in experiment [1] (setting [4]) and in experiment [1] (setting [5]) were -2% and -20%, respectively. Moreover, in experiment [2], 5 µg/mL produced 36% inhibition.
For `CCCCCCCCCCCc1[nH]c2ccc(C(=O)O)cc2c1C` [Compound CQQ, 2-(n-undecyl)-3-methylindole-5-carboxylic acid], in experiment [3], the “% change in serum glucose compared with control” value was -40%.
`CCCCCCCCCCCC1CNc2cc(C(=O)O)ccc21` (racemic) [Compound BXX, (RS)-3-(n-undecyl)indoline-6-carboxylic acid]: the results for the change in vivo at 0.2 % strength in experiment [1] (setting [4]) and in experiment [1] (setting [5]) were -10% and -39%, respectively. For the same compound, the “% change in serum glucose compared with control” value in experiment [3] is recorded as -9%.
For `CCCCCCCCCCCCCCc1cc2cc(C(=O)O)ccc2[nH]1` [Compound NN, 2-(n-tetradecyl)indole-5-carboxylic acid], the change in vivo at 0.2 % strength in experiment [1] (setting [4]) was -39%; in experiment [1] (setting [5]) it was -73%. This compound gave an inhibition at 5 µg/mL in experiment [2] of 76%.
In the case of `CCCCCCCc1cc2ccc(C(=O)OCC)cc2[nH]1` [Compound AJJ, ethyl 2-(n-heptyl)indole-6-carboxylate], the change in vivo at 0.2 % strength in experiment [1] (setting [4]) is -8%; in experiment [1] (setting [5]) it was 6%. The inhibition at 5 µg/mL in experiment [2] came out at 45%.
With `CCCCCCCCCCCCCCCc1cc2cc(C(=O)O)ccc2[nH]1` [Compound G, 2-(n-pentadecyl)indole-5-carboxylic acid], the change in vivo at 0.03 % strength is -7% in experiment [1] (setting [4]) and -41% in experiment [1] (setting [5]). This compound also displayed an inhibition at 5 µg/mL in experiment [2] of 51%.
With `CCCCCCCCCCCCCCCCCc1cc2cc(C(=O)O)ccc2[nH]1` [Compound E, 2-(n-heptadecyl)indole-5-carboxylic acid], in experiment [1] (setting [4]), the change in vivo at 0.1 % strength is -42% and the change in vivo at 0.2 % strength was -54%. Further, in experiment [1] (setting [5]), the change in vivo at 0.1 % strength is -55% and the change in vivo at 0.2 % strength was -65%.
Regarding `CCCCCCCCCC(C)c1cc2cc(C(=O)O)ccc2[nH]1` (racemic) [Compound RR, (RS)-2-(1-methyldecyl)indole-5-carboxylic acid], the change in vivo at 0.2 % strength was -7% in experiment [1] (setting [4]) and -88% in experiment [1] (setting [5]).
Turning to `CCCCCCCCCCC1CNc2cc(C(=O)O)ccc21` (racemic) [Compound BYY, (RS)-3-(n-decyl)indoline-6-carboxylic acid], the change in vivo at 0.2 % strength in experiment [1] (setting [4]) is -23%; in experiment [1] (setting [5]) it was -50%.
For `CCCCCCCCCCCCCc1cc2cc(C(=O)O)ccc2[nH]1` [Compound H, 2-(n-tridecyl)indole-5-carboxylic acid], in experiment [1] (setting [4]), the change in vivo at 0.1 % strength was -15% and the change in vivo at 0.2 % strength was -48%. Also, in experiment [1] (setting [5]), the change in vivo at 0.1 % strength was -26% and the change in vivo at 0.2 % strength is -68%.
Regarding `CCCCCCCCC1CNc2cc(C(=O)O)ccc21` (racemic) [Compound CCC, (RS)-3-(n-octyl)indoline-6-carboxylic acid], the change in vivo at 0.2 % strength in experiment [1] (setting [4]) is -11%; in experiment [1] (setting [5]), -28%.
In the case of `CCCCCCCCCCC1Cc2ccc(C(=O)O)cc2N1` (racemic) [Compound ZZ, (RS)-2-(n-decyl)indoline-6-carboxylic acid], the change in vivo at 0.2 % strength in experiment [1] (setting [4]) is -32%; in experiment [1] (setting [5]), -77%.

The values are drawn from patent publication US4493843A, “Indole and indoline carboxylic acid compounds and method of use” (May & Baker Limited, priority 1980, dated 1985).
